What is called melting point is the temperature of the solid-liquid transition.

Structures are written as SMILES. Residues, ends and D or L forms follow the SMILES beside them. *: point of attachment. Cbz = O=C(OCc1ccccc1)*

With `NC(=O)OCc1ccc(CNC(=O)[C@@H](CCCNC(N)=N[N+](=O)[O-])NC(=O)C(c2ccccc2)c2ccccc2)cc1`, the melting point was in the range of 130 to 132 °C.

On to `CCOC(=O)c1ccc(O[Si](C)(C)C(C)(C)C)c(OC)c1`, for which the melting point was determined as 103 °C.

In the case of `O=C(O)C1C=Nc2c(cccc2[N+](=O)[O-])C1=O` (configuration not stated), the melting point lay in the range of 263 to 265 °C.

Consider `OC1CSC(Oc2cc(-c3ccc(F)nc3)cc(F)c2F)C(O)C1O` (configuration not stated), for which the melting point is 179 °C.

`CCOC(=O)CC[C@H](NC(=O)c1ccc(CCC2CNc3nc(NC(=O)C(C)(C)C)nc(O)c3C2)cc1)C(=O)OCC` (some centres not stated) gave a melting point greater than 250 °C.

With `CCCCNc1ccc2nn(CCC)c(=O)n2n1`, the melting point is 183 to 185 °C.

With `CCCCN1CCC(n2nc(-c3c(-c4ccccc4)nn4ccccc34)ccc2=O)CC1`, the melting point fell in the range of 106 to 108 °C.

In turn, `Cn1c(=O)[nH]c(=O)c2nc(-c3ccc(/C=C/C(=O)O)cc3)[nH]c21` returned a melting point of 300 °C.

As to `NC(=O)N1CCC(Oc2ccc([N+](=O)[O-])cc2)(c2ccccc2)CC1`, the melting point was 203 to 206 °C.

Molecule `C=CCC1(C(=O)NCc2ccccn2)c2ccccc2-c2ccccc21` registered a melting point of 110 to 111 °C.

Turning to `COc1ncc(C(F)(F)F)cc1-c1cccn2nc(Nc3ccc(C4CCNCC4)cc3)nc12`, the melting point was 106 to 108 °C.

Molecule `Nc1nc(NCc2ccc(OCc3ccccc3)cc2)nc2nc(-c3ccco3)nn12` returned a melting point of 168 to 170 °C.

The molecule `CCOC(=O)C1=C(C)NC(COC(C)=O)=C(C(=O)OCC)C1c1ccccc1` (configuration not stated) returned a melting point of 104 to 106 °C.

`CC(C)C(NC(=O)OC(C)(C)C)C(=O)NC(C(=O)OC1CC(n2cc(C=CBr)c(=O)[nH]c2=O)OC1CCl)C(C)C` (configuration not stated) gave a melting point of 114 to 116 °C.

In turn, `CCCc1c(OCCCOc2ccc(C(C)=O)c(OCC(=O)O)c2CCC)ccc(C(C)=O)c1O` had a melting point of 151 to 155 °C.

With `COc1ccc(-c2oc(CCCCCc3nnn[nH]3)nc2-c2ccc(Cl)cc2)cc1`, the melting point was 160 °C.

Turning to `O=C(OCC1CC1)c1ncn2c1[C@@H]1CCCN1C(=O)c1ccccc1-2`, the melting point lay in the range of 189 to 190 °C.

As for `CCOC(=O)c1cc(OC)c2c(C)c(CCN(CC)CC)c(=O)oc2c1Cl`, the melting point lay in the range of 147 to 148 °C.

For `O=C1CCC(c2ccccc2)(c2ccccc2)[C@@H]2CN(C(=O)Cc3ccccc3Br)C[C@H]12` (racemic), the melting point is 217 °C.

Regarding `COc1ccc2c(c1)cc(-c1ccccc1)n2-c1ccc(O)cc1`, the melting point was in the range of 200 to 201 °C.

The molecule `COC(=O)c1sc(-c2ccc(C)cc2)cc1NC(C)=O` had a melting point of 127 to 129 °C.

Molecule `CNC(=O)/C=C1\CCc2c(Cl)cc(F)cc21` displayed a melting point of 173 to 175 °C.

`O=C(O)/C=C/c1cccc(OCCC(c2ccccc2)(c2ccccc2)c2ccccc2)c1` had a melting point of 104 to 109 °C.

For the molecule `Nc1cccc2c1CCN(C(=O)C(F)(F)F)CC2`, the melting point lay within 85 to 88 °C.

`CC(C)(C)OC(=O)N1CCC(c2ccc(N3C[C@H](CO)OC3=O)cc2F)CC1`: the melting point lay in the range of 120 to 122 °C.

With `CSC1=NC(C)(C)CCC(C)(C)N1`, the melting point lay in the range of 200 to 205 °C.

In turn, `CCCCCCCCCC1SC(c2cccnc2)NC1=O` (configuration not stated) registered a melting point of 90 to 95 °C.

As for `C=Cc1ccc(C(=O)OC(C)(C)C)c(C#N)c1`, the melting point is 51 to 53 °C.

As for `COC(=O)C1CCC2C3CCC4CC(C)(O)CCC4(C)C3C(=O)CC12C` (configuration not stated), the melting point turned out to be 150 °C.

The molecule `CSc1ccc(C(C)Nc2nc(NC(C)=O)nc(C(F)(F)F)n2)cc1` (configuration not stated) registered a melting point of 132 °C.

In turn, `CC1(C)COC(=O)N1c1nc(-c2csc(C#N)c2)cs1` showed a melting point of 249 to 252 °C.

The molecule `CCOC(=O)C(C)Oc1ccc(N(C)c2cc3ccccc3c(O)n2)cc1` (configuration not stated) displayed a melting point of 96 °C.

Molecule `CC(C)NCCNc1ccc2ncc(Br)n2n1` gave a melting point of 87 to 88 °C.

Consider `CC(C)c1c(C=CC2CC(O)CC(O)O2)n(CC2CCCCC2)c(=O)c2ccccc12` (mixture of isomers), for which the melting point was 207 to 209 °C.

Regarding `COC1=CC2=CCC3C(C(F)CC4(C)C(=O)CCC34)C2CC1` (configuration not stated), the melting point is 173 °C.

`CCOC(=Cc1ccc(-c2cccc(N(C)C(=O)NCCc3ccccc3)c2)cc1)C(=O)O` gave a melting point of 70 °C.

`OCC1OC(Sc2ccccc2)C(OCc2ccccc2)C(OCc2ccccc2)C1OCc1ccccc1` (configuration not stated): the melting point was 127 to 129 °C.

The molecule `Cc1ccc(C(=O)Nc2ccccc2O)c(F)c1` had a melting point of 195 to 197 °C.

As for `CCS(=O)(=O)N[C@H](C(=O)NCCc1ccc(OCCOc2ccc(F)cc2)c(OC)c1)C(C)C`, the melting point was in the range of 124 to 125 °C.

With `Cc1nc(C(N)=O)c2n1-c1ccc(Cl)cc1C(c1ccccc1F)=NC2`, the melting point was in the range of 300 to 305 °C.

Turning to `Cc1cnc(CNC(=O)c2sc(N3CCN(Cc4ccc(F)cc4)C3=O)nc2C)cn1`, the melting point fell in the range of 191 to 193 °C.

In turn, `CCOC(=O)c1cc(Oc2cc(Cl)c(Cl)cc2Cl)ccc1[N+](=O)[O-]` had a melting point of 99 to 102 °C.

`c1ccc(NC2CCc3cccnc3C2)cc1` (configuration not stated): the melting point was 102 to 103 °C.

In the case of `CCOc1ccc(C2=NN(Cc3ccccc3)C(=O)[C@H]3CCCC[C@@H]23)cc1OCC` (relative stereo), the melting point lay within 91 to 92 °C.

Turning to `COc1cccc(-c2nc3nccnc3[nH]2)c1`, the melting point came to 289 °C.

`O=C(O)CCCn1ccn(C2CCc3ccccc3C2)c1=S` (configuration not stated) came in with a melting point of 156 to 158 °C.

In turn, `O=C(Nc1ccc(F)cc1)N1CC=CCN1` displayed a melting point of 100 to 101 °C.

Take `COC(=O)C(Cc1c[nH]c2ccccc12)NC(=O)C(CCC(N)=O)NC(=O)OCc1ccccc1` (stereo not drawn) (Cbz-Gln-Trp-OMe; configuration not given here): the melting point is 197 to 198 °C.

For `CCOC(=O)C=Cc1ccccc1NC(=O)c1ccc(OCCCCc2ccccc2)cc1`, the melting point was in the range of 129 to 131 °C.

`NNC(=O)N(NC(=O)CSC(=O)c1ccccc1)C(=O)CSC(=O)c1ccccc1` yielded a melting point of 184 to 190 °C.

In turn, `O=[N+]([O-])c1ccc(N(CCBr)S(=O)(=O)c2ccccc2)cc1` had a melting point of 168 °C.

As to `O=C(O)Cc1nn(Cc2ccc(Br)cc2)c(=O)c2ccccc12`, the melting point was 179 to 181 °C.

`CN(C)C=C1CN=C(c2ccccc2)c2ccccc2C1=O` returned a melting point of 131 to 133 °C.

`COc1cc(OC)nc(Oc2cccc(F)c2C(=O)O)n1` displayed a melting point of 133 to 134 °C.

In turn, `CC(C)(C)OC(=O)C(C)(C)N1COC(CF)=C(c2ccccc2)C1=O` displayed a melting point of 80.5 to 82.5 °C.

`CC1(C)CCC(C)(C)c2cc(-c3ccc(O)c(-c4ccc(C(=O)O)cc4)c3)ccc21`: the melting point lay within 264 to 267 °C.

With `CCOC(=O)CC(=O)Nc1c(-c2ccccc2)nn2ccccc12`, the melting point fell in the range of 160 to 161 °C.

Consider `N#Cc1ccc(NC(=S)Nc2ncccc2OCc2ccccc2)cc1`, for which the melting point is 163 to 165 °C.

As to `Nc1nc2c(nnn2COC(CO)CO)c(=O)[nH]1`, the melting point fell in the range of 233 to 234 °C.

With `CCOC(=O)C1=C(COCCNC2=NC(=O)CS2)NC(C)=C(C(=O)OC)C1c1cccc(Cl)c1Cl` (configuration not stated), the melting point fell in the range of 204 to 205 °C.

Molecule `COc1ccc2oc(C(N)=O)c(OCc3ccccc3)c2c1` registered a melting point of 70 to 72 °C.

Molecule `CN1C(=O)N(C)P(C)(=S)C1=O` (configuration not stated) yielded a melting point of 95 °C.

Values taken from a melting point compilation (Tetko et al.; mined from patent text by program, amines drawn as free bases though some values may be those of a salt).
